Activity calls are given as the source filed them.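 How the source made its calls: active means mean IC50 below 20 µM in each of the two panels, so potent in both; inactive means the rest.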
Molecular target: Neuropilin-1 (Homo sapiens) (UniProt O14786)
Assay: NRP-1 b1b2 CendR peptide binding inhibitors, dose response, biochemical, FP and AlphaScreen panel (AID 651650)
Conditions: NRP-1 b1b2 / RPARPAR peptide binding, FP or AlphaScreen
[1] = AlphaScreen, run 1, individual panel run IC50
[2] = FP, run 1, individual panel run IC50
[3] = FP, run 2, individual panel run IC50

Chain of Neuropilin-1 (Homo sapiens) (O14786 whole entry, looked up): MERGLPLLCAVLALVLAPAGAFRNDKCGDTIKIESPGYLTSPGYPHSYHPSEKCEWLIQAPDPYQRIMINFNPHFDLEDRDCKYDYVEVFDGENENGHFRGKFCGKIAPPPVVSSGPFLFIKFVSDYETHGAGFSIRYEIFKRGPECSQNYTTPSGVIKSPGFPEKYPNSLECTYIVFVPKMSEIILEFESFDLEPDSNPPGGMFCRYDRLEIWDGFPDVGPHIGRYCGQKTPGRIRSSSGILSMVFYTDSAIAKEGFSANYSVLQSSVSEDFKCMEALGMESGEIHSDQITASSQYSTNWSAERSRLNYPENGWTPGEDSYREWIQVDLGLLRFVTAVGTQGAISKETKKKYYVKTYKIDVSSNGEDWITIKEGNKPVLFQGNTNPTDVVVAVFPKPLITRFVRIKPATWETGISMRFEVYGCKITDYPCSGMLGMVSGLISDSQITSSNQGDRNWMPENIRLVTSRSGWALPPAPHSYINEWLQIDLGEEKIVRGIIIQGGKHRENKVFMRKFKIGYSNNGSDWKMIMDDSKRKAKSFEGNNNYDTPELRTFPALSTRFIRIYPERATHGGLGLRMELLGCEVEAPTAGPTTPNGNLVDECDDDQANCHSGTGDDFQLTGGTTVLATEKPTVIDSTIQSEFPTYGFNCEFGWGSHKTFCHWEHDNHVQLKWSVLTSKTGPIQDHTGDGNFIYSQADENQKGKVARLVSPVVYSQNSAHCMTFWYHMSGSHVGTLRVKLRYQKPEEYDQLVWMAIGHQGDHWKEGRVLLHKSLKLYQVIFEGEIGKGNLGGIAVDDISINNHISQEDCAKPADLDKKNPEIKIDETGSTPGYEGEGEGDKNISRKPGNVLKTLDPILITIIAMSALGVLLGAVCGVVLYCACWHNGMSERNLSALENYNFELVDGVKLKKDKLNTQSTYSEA

Row | Compound | IC50 (AlphaScreen, mean of runs) | IC50 [1] [µM] | IC50 (FP, mean of runs) | IC50 [2] [µM] | IC50 [3] [µM]
1 | CC(C)(C)n1nc(-c2ccc(F)cc2)c2c(N)ncnc21 | > 100 µM (inactive) | > 100 | > 95 µM (inactive) | > 95 | > 95
2 | CC1CCN(C(=O)c2[nH]cnc2C(=O)NCc2ccc(CNC(=O)OC(C)(C)C)cc2)CC1 | 12.9 µM | 12.9 | > 95 µM (inactive) | > 95 | > 95
3 | COc1ccc(S(=O)(=O)N2CCCCC2)cc1NC(=O)c1c(F)cccc1Cl | > 100 µM (inactive) | > 100 | > 95 µM (inactive) | > 95 | > 95
4 | CC(=O)Nc1cc(F)c2c(c1F)Cc1cc(F)ccc1-2 | inactive | 89.2 | > 95 µM (inactive) | > 95 | > 95
5 | Cc1cc(=O)n2nc(N3CCCC(C(=O)N4CCOCC4)C3)sc2n1 (stereo not given) | > 100 µM (inactive) | > 100 | > 95 µM (inactive) | > 95 | > 95
6 | Cc1ccc(C(=O)N/C(=C\c2ccc(-c3ccccc3[N+](=O)[O-])o2)C(=O)NCCCN2CCOCC2)cc1 | > 100 µM (inactive) | > 100 | > 95 µM (inactive) | > 95 | > 95
7 | CCOC(=O)N1CCN(C(=O)c2cc3n(n2)C(C(F)(F)F)CC(c2ccc4c(c2)OCO4)N3)CC1 (stereo not given) | > 100 µM (inactive) | > 100 | > 95 µM (inactive) | > 95 | > 95
8 | C=C1C[C@@]23CCC4[C@@](C)(CCC[C@@]4(C)C(=O)O)C2CC[C@]1(O)C3 (stereo not given in full) | > 100 µM (inactive) | > 100 | > 95 µM (inactive) | > 95 | > 95
9 | COc1ccc(C2CC(O)(c3ccccc3)Oc3cc(OC)ccc32)cc1 (stereo not given) | > 100 µM (inactive) | > 100 | > 95 µM (inactive) | > 95 | > 95
10 | CCN(Cc1ccncc1)C(=O)c1cc(COc2ccc(F)cc2F)on1 | > 100 µM (inactive) | > 100 | > 95 µM (inactive) | > 95 | > 95
11 | O=C(CSc1nc(O)c(Cc2ccccc2)c(=O)n1-c1ccccc1)N1CCOCC1 | > 100 µM (inactive) | > 100 | > 95 µM (inactive) | > 95 | > 95
12 | CC(C)COC(=O)C1C2C=CC3(CN(C(C)c4ccc(Br)cc4)C(=O)C13)O2 (stereo not given) | > 100 µM (inactive) | > 100 | > 95 µM (inactive) | > 95 | > 95
13 | COC(=O)C1N[C@@H]([C@@H](NC(=O)COc2ccccc2)C(=O)NCc2ccccc2)SC1(C)C (stereo not given in full) | > 100 µM (inactive) | > 100 | > 95 µM (inactive) | > 95 | > 95
14 | CCCCC1CCC(C(=O)NC2CCS(=O)(=O)C2)CC1 (stereo not given) | > 100 µM (inactive) | > 100 | > 95 µM (inactive) | > 95 | > 95
15 | CCO[C@@H]1OC(C(=O)NCc2ccccc2)=C[C@H](c2ccc(Br)cc2)[C@H]1CCCO | inactive | 22.1 | > 95 µM (inactive) | > 95 | > 95
16 | COC(=O)C[C@H]1c2cc(F)ccc2S(=O)(=O)N1C(C)C | > 100 µM (inactive) | > 100 | > 95 µM (inactive) | > 95 | > 95
17 | Cc1ccc(Nc2c(-c3ccccc3O)nc3ncccn23)cc1 | > 100 µM (inactive) | > 100 | > 95 µM (inactive) | > 95 | > 95
18 | CCc1ccc(OC(=O)CN2C(=O)c3ccccc3C2=O)cc1 | inactive | 32 | > 95 µM (inactive) | > 95 | > 95
19 | CCCNC(=S)Nc1cccc(C(F)(F)F)c1 | > 100 µM (inactive) | > 100 | > 95 µM (inactive) | > 95 | > 95
20 | CCN(CCCNC(=O)CNC(=O)c1nn(-c2ccc(OC)cc2OC)c(=O)c2ccccc12)c1cccc(C)c1 | > 100 µM (inactive) | > 100 | > 95 µM (inactive) | > 95 | > 95
21 | c1ccc2c3n(nc2c1)CCCO3 | > 100 µM (inactive) | > 100 | > 95 µM (inactive) | > 95 | > 95
22 | O=C(NCc1ccccc1)C(c1cccnc1)N(C(=O)c1ccccn1)c1ccccc1F (stereo not given) | > 100 µM (inactive) | > 100 | > 95 µM (inactive) | > 95 | > 95

— PubChem BioAssay AID651650 (Sanford-Burnham Center for Chemical Genomics, 2012)
